Measurements published in US10449200B2, “Combined inhibition of the vitamin D receptor and poly(ADP) ribose polymerase (PARP) in the treatment of cancer” (Institute for Cancer Research, priority 2014, dated 2019).
pIC50: −log10 of the molar value. Where two headings read alike, the source gives them in different places.

Assays:
BxPC3 cells [1] = experiment: Immunofluorescence of DNA damage foci (phospho-γH2AX, Rad51, 53BP1) after gemcitabine; assay type: cell-based, human; settings: for cells positive for Rad51 foci (>5 foci/nucleus): 18 hrs post gemcitabine
Method: (§1) For Immunofluorescence, cells were plated onto coverslips 24 hours pre-gemcitabine treatment. At different timepoints post gemcitabine treatment, cells were permeablized, fixed (4% paraformaldehyde) and stained. Antibodies to γH2AX (Millipore; 05-636), Rad51 (a gift), and 53BP1 were used. Alexa Fluor-conjugated (488, 555, and 647 nm) secondary antibodies (Molecular probes; A-11029, A-21428, A-21247) were used at a final concentration of 1 and nuclei counterstained with DAPI. Images were captured using a 40× or 63× high NA objective mounted on a semi-automated inverted microscope (Nikon TEi) with a charge-coupled device camera (Photometrics1394) using Nikon Elements 2.0. Exposure times for antibodies were optimized for control samples and identical exposure times used for the experimental samples. Images were quantitated and analyzed using Nikon Elements 2.0. Confocal images were taken using a Leica TCS-SP8 microscope controlled by LAS software (Leica Microsystems).
It was investigated if these repair pathways were abrogated after VDR knockdown by staining for foci formation by phospho-γH2AX, Rad51, and 53BP1, and measuring intensities after gemcitabine treatment (FIGS. 3, 4, and 5). BxPC3 (high VDR expression) and Panc1 (low VDR expression) cells were treated with gemcitabine (50 nM) for 2, 4, 8, and 18 hours, and fixed and stained for phospho-γH2AX, 53BP1, and Rad51. Foci quantitation included counting of nuclei with >5 foci and a separate measurement of the sum intensities of foci that were averaged for 5 separate immunofluorescence experiments. […] Weak but detectable phospho-γH2AX foci were visible within 4 hours of gemcitabine treatment in BxPC3 cells while it took 18 hours for foci to form in Panc1 cells (FIG. 3, A). Similarly, Rad51 foci were visible after 8 hours of gemcitabine treatment in BxPC3 cells compared to 18 hours in Panc1 cells (FIG. 3, A, FIG. 4, and FIG. 5).

VDR = experiment: Western blot of VDR expression after gemcitabine; assay type: cell-based, human; settings: gemcitabine 50 nM 18 hrs
Method: Western Blotting. BxPC3, Panc1, and CFPAC1 cells were treated with vehicle or gemcitabine (50 nM) for 18 hrs. Cells were harvested, washed in PBS and lysed in NP40 lysis buffer (1% NP40/PBS/10% glycerol) with protease and phosphatase inhibitors. Protein concentrations were determined with MicroBCA Assay (Pierce Biotechnology; 23224 and 23228) and then SDS sample buffer was added to the lysates. 40 μg of boiled lysates was separated by SDS-PAGE and then transferred onto Immobilon P membrane (Millipore; IPVH00010). Antibodies used for immunoblotting were obtained from: VDR (Epitomics; 3277-1), γH2AX (Upstate Biotechnologies, now Millipore; 05-636), Rad51 (Genetex; GTX70230, gift), p300 (Santa Cruz Biotechnologies; SC-584), and TAO1 kinase (Bethyl Labs; A300-524A).
Next, the levels of VDR protein were compared in BxPC3, CFPAC1, and Panc1 cells to see if the amount of expression might correlate with gemcitabine sensitivity.

CFPAC1 cells = experiment: Clonogenic survival assay, gemcitabine kill curves; assay type: cell-based; settings: Homo sapiens
Method: (§2) Cell culture and chemicals. Panc1, BxPC3, and CFPAC1 cells were purchased from American Type Culture Collection (ATCC) and banked in house until use. Cell lines were cultured in DMEM/10% FBS supplemented with 2 mM glutamine and 1% penicillin, streptomycin, and kanamycin (PSK) and were maintained at 37° C. in 5% CO2. Charcoal stripped (in house cell culture facility) and dialyzed FBS (Life Technologies; 509 26400-036) were used. Gemcitabine was obtained from the in house pharmacy. Rucaparib and trichostatin A were gifts.
(§3) Cell viability assays. For clonogenic assays, 1000 cells per well were seeded into 6 well plates on day 0. Cells were treated with gemcitabine at various doses on day 1 for 24 hours, Gemcitabine was washed out on day 2, and cells were allowed to grow for a subsequent 10 days before being fixed (10% methanol+10% acetic acid) and stained with crystal violet (0.4% in 20% ethanol) for colony counting and quantitation. For Rucaparib clonogenic assays, the drug was added at various doses 24 hours after cell plating, and cells were allowed to grow for a subsequent 10 days in the presence of Rucaparib. For TSA clonogenic assays, the drug was added for 4 hours prior to addition of gemcitabine or vehicle for another 18 hours before drugs were washed away, and cells were allowed to grow in drug-free medium for 10 days.

BxPC3 cells [2] = experiment: Clonogenic survival assay, gemcitabine kill curves; assay type: cell-based, human
Method: as §2, §3

Panc1 cells = experiment: Immunofluorescence of DNA damage foci (phospho-γH2AX, Rad51) after gemcitabine; assay type: cell-based, human
Method: as §1
It was investigated if these repair pathways were abrogated after VDR knockdown by staining for foci formation by phospho-γH2AX, Rad51, and 53BP1, and measuring intensities after gemcitabine treatment (FIGS. 3, 4, and 5). BxPC3 (high VDR expression) and Panc1 (low VDR expression) cells were treated with gemcitabine (50 nM) for 2, 4, 8, and 18 hours, and fixed and stained for phospho-γH2AX, 53BP1, and Rad51. Foci quantitation included counting of nuclei with >5 foci and a separate measurement of the sum intensities of foci that were averaged for 5 separate immunofluorescence experiments.

[3] = BxPC3 VDRkd, 18 hours after gemcitabine
[4] = BxPC3 VDRkd, 18 hours of gemcitabine
[5] = Panc1 cells or VDR depleted BXPC3 versus BxPC3, after gemcitabine
[6] = parental BxPC3, 18 hours of gemcitabine

SMILES: Nc1ccn([C@@H]2O[C@H](CO)[C@@H](O)C2(F)F)c(=O)n1 [gemcitabine]
- time until Rad51 foci detected after gemcitabine (BxPC3 cells [1]; BxPC3 VDRkd cells): 18 h
- time until phospho-γH2AX foci detected after gemcitabine (BxPC3 cells [1]; BxPC3 VDRkd cells): 8 h
- cells exhibiting Rad51 foci (BxPC3 cells [1]; BxPC3 VDRkd, 4 hrs in gemcitabine (50 nM), absence of TSA): 11%
- cells with diffuse phospho-γH2AX pattern (BxPC3 cells [1]; [3]): 82%
- cells with punctate phospho-γH2AX foci (BxPC3 cells [1]; [3]): 18%
- cells with clear Rad51 foci (BxPC3 cells [1]; [4]): 28%
- cells with diffuse 53BP1 pattern (BxPC3 cells [1]; [4]): 69%
- cells with diffuse Rad51 staining (BxPC3 cells [1]; [4]): 72%
- cells with punctate 53BP1 foci (BxPC3 cells [1]; [4]): 31%
- cells positive for Rad51 foci (>5 foci/nucleus) (BxPC3 cells [1]; BxPC3 control cells): ~84%
- cells positive for Rad51 foci (>5 foci/nucleus) (BxPC3 cells [1]; BxPC3 transfected with p300 shRNA): ~22%
- delay of Rad51 foci formation kinetics (BxPC3 cells [1]; [5]): 4 h
- delay of phospho-γH2AX foci formation kinetics (BxPC3 cells [1]; [5]): 6 h
- reduction of Rad51 foci intensity (BxPC3 cells [1]; [5]): 1.5 fold
- reduction of phospho-γH2AX foci intensity (BxPC3 cells [1]; [5]): 2 fold
- reduction of Rad51 focal intensity (BxPC3 cells [1]; p300 knockdown cells compared to control cells, gemcitabine treated): ~35%
- cells with punctate phospho-γH2AX foci (BxPC3 cells [1]; parental BxPC3, 18 hours after gemcitabine): 94%
- cells with clear Rad51 foci (BxPC3 cells [1]; [6]): 92%
- cells with diffuse 53BP1 pattern (BxPC3 cells [1]; [6]): 10%
- cells with diffuse Rad51 staining (BxPC3 cells [1]; [6]): 8%
- cells with punctate 53BP1 foci (BxPC3 cells [1]; [6]): 90%
- time until Rad51 foci visible after gemcitabine (BxPC3 cells [1]; parental BxPC3, gemcitabine 50 nM): 8 h
- cells exhibiting Rad51 foci (BxPC3 cells [1]; parental BxPC3, within 4 hours of gemcitabine treatment): 92%
- VDR levels after overnight treatment with gemcitabine (VDR; BXPC3 cells): No noticeable increase
- VDR levels after overnight treatment with gemcitabine (VDR; CFPAC1 cells): increased
- VDR levels after overnight treatment with gemcitabine (VDR; Panc1 cells): increased
- pIC50 (CFPAC1 cells; CFPAC-1, CFPAC1, VDR depleted (VDR siRNA), read-out: IC50 gemcitabine): ~7.70
- pIC50 (CFPAC1 cells; CFPAC-1, CFPAC1, control siRNA, read-out: mean IC50 gemcitabine): ~7.35
- pIC50 (CFPAC1 cells; CFPAC-1, CFPAC1 cells, read-out: IC50 gemcitabine): ~7.35
- reduction in gemcitabine IC50 after depletion of VDR (BxPC3 cells [2]; BXPC3 cells): ~3 fold
- pIC50 (BxPC3 cells [2]; BxPC3 VDRkd cells transfected with WT-VDR, read-out: IC50 gemcitabine): ~6.59
- pIC50 (BxPC3 cells [2]; Homo sapiens, BXPC-3, BxPC3, VDR siRNA, read-out: mean IC50 gemcitabine): ~7.22
- pIC50 (BxPC3 cells [2]; Homo sapiens, BXPC-3, BxPC3, control shRNA, read-out: IC50 gemcitabine): ~7.10
- pIC50 (BxPC3 cells [2]; Homo sapiens, BXPC-3, BxPC3, control siRNA, read-out: mean IC50 gemcitabine): ~6.70
- pIC50 (BxPC3 cells [2]; Homo sapiens, BXPC-3, BxPC3, p300 shRNA, read-out: IC50 gemcitabine): ~7.40
- pIC50 (BxPC3 cells [2]; Homo sapiens, BXPC-3, BxPC3 VDRkd cells transfected with WT-VDR, read-out: IC50 gemcitabine): ~6.52
- pIC50 (BxPC3 cells [2]; Homo sapiens, BXPC-3, BxPC3 VDRkd cells, WT-VDR co-transfected with AML1/ETO, read-out: IC50 gemcitabine): ~7.10
- pIC50 (BxPC3 cells [2]; Homo sapiens, BXPC-3, BxPC3 VDRkd cells, WT-VDR co-transfected with S237M mutant, read-out: IC50 gemcitabine): ~7.22
- pIC50 (BxPC3 cells [2]; Homo sapiens, BXPC-3, BxPC3 VDRkd cells, untransfected, read-out: IC50 gemcitabine): ~7.30
- pIC50 (BxPC3 cells [2]; Homo sapiens, BXPC-3, BxPC3 VDRkd cells, vector transfected, read-out: IC50 gemcitabine): ~7.30
- pIC50 (BxPC3 cells [2]; Homo sapiens, BXPC-3, BxPC3 cells (highest VDR levels), read-out: mean IC50 gemcitabine): ~6.70
- increase of gemcitabine IC50 over vector controls (BxPC3 cells [2]; wild type VDR transfected into VDR depleted BXPC3 cells): ~6 fold
- time until Rad51 foci visible after gemcitabine (Panc1 cells; Panc1, gemcitabine 50 nM): 18 h
- time until phospho-γH2AX foci form after gemcitabine (Panc1 cells; Panc1, gemcitabine 50 nM): 18 h
- time until phospho-γH2AX and Rad51 foci after gemcitabine addition (Panc1 cells; Panc1 transfected with VDR siRNA): 18 h
- time until phospho-γH2AX and Rad51 foci after gemcitabine addition (Panc1 cells; Panc1 transfected with control): ~8 h
